According to ChEMBL document CHEMBL1142572, “A Madagascar Sponge Batzella sp. as a source of alkylated iminosugars” (2005):

Tested on: Staphylococcus epidermidis
Assay: Antimicrobial activity against Staphylococcus epidermidis ATCC 12228
Format: functional

MIC, ≤ 6.3 µg/mL:
CCCCCCCCCCCC(O)C[C@H]1C[C@H](O)[C@@H](O)[C@@H](CO)N1 (stereo partly drawn) [BATZELLASIDE C]
CCCCCCCCCCC(O)C[C@H]1C[C@H](O)[C@@H](O)[C@@H](CO)N1 (stereo partly drawn) [BATZELLASIDE A]
CCCCCCCCCC(O)C[C@H]1C[C@H](O)[C@@H](O)[C@@H](CO)N1 (stereo partly drawn) [BATZELLASIDE B]
